Experimental data: ChEMBL document CHEMBL4002645, “Discovery of Potent, Selective, and Structurally Novel Dot1L Inhibitors by a Fragment Linking Approach” (ACS Med Chem Lett, 2017)
Blank lines part the entries; values can stand above or below the compound they belong to.

Legend:
[1] = biological target: T1, Histone-lysine N-methyltransferase, H3 lysine-79 specific (Homo sapiens, UniProt Q8TEK3); assay: Inhibition of DOT1L (2 to 416 residues) (unknown origin) using biotinylated nucleosomes as substrate preincubated for 30 mins followed by substrate addition in presence of [3H-Me]SAM by scintillation proximity assay
Target sequence in this assay (Q8TEK3 whole entry, the tested form may be a part): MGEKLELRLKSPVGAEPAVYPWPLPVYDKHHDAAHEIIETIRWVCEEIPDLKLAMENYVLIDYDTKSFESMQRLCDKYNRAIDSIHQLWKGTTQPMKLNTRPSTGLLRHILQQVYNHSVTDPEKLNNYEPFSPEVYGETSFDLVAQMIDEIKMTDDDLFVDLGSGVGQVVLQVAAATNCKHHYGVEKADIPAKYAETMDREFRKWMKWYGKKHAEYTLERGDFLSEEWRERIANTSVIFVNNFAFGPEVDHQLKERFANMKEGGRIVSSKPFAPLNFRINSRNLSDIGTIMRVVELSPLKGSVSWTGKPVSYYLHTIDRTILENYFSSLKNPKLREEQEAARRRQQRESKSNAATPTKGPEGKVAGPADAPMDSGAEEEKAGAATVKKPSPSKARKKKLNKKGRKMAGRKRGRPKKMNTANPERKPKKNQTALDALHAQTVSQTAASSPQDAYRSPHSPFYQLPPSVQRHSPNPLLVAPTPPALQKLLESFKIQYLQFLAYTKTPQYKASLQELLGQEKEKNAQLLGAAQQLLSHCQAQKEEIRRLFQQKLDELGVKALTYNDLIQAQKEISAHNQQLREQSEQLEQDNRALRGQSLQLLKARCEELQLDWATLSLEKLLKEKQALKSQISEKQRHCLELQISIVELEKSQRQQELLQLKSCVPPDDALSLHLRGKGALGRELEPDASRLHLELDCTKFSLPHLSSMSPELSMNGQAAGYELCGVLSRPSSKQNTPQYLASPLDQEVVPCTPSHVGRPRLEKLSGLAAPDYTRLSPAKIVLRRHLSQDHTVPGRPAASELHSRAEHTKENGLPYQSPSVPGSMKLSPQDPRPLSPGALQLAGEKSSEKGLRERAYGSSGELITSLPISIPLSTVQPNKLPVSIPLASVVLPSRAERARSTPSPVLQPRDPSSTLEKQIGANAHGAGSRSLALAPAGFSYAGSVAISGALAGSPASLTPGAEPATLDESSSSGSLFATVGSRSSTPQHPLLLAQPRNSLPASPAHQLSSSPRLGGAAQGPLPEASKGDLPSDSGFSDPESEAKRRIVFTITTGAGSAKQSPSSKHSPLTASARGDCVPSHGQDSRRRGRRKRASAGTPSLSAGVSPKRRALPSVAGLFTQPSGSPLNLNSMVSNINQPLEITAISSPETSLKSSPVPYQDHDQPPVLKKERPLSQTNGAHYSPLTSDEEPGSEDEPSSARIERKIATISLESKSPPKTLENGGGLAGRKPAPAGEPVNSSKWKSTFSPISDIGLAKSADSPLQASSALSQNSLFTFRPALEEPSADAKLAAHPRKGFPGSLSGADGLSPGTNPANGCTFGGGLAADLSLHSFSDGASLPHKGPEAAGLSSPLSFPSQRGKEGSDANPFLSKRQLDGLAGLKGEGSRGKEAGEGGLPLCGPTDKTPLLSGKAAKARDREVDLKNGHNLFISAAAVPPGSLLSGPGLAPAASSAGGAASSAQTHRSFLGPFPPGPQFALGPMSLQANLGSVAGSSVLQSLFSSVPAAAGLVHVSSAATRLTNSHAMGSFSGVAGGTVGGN

[2] = biological target: T1, Histone-lysine N-methyltransferase, H3 lysine-79 specific; assay: Binding affinity to human Avi-tagged biotinylated DOT1L (2 to 416 residues) assessed as target residence time at 100 nM by surface plasmon resonance assay
Target sequence in this assay (Q8TEK3 whole entry, looked up, the tested form may be a part): as the sequence (Q8TEK3 whole entry, the tested form may be a part) above

MV4-11 = assay: Antiproliferative activity against human MV4-11 cells harboring MLL-AF4 treated for 6 hrs measured after 8 days by Celltiter-Glo reagent based assay; assay type: functional, cell-based
[3] = biological target: T1, Histone-lysine N-methyltransferase, H3 lysine-79 specific; assay: Inhibition of DOT1L in human MOLM13 cells assessed as suppression of HoxA9 gene after 72 hrs by luciferase reporter gene assay; assay type: cell-based
Target sequence in this assay (Q8TEK3 whole entry, the tested form may be a part): as above

[4] = biological target: T1, Histone-lysine N-methyltransferase, H3 lysine-79 specific; assay: Inhibition of DOT1L in human HeLa cells assessed as reduction in H3K79me2 level after 72 hrs by ELISA; assay type: cell-based
Target sequence in this assay (Q8TEK3 whole entry, the tested form may be a part): as above

[5] = biological target: T1, Histone-lysine N-methyltransferase, H3 lysine-79 specific; assay: Competitive inhibition of DOT1L (2 to 416 residues) (unknown origin) using biotinylated nucleosomes as substrate preincubated for 30 mins followed by substrate addition in presence of [3H-Me]SAM by scintillation proximity assay
Target sequence in this assay (Q8TEK3 whole entry, the tested form may be a part): as above

IC50 ([1]; read-out: IC50): 240 µM
Compound: N[C@@H]1CCCN(c2ncnc3[nH]ccc23)C1

IC50 ([1]; read-out: IC50): 141 µM
Compound: CN[C@@H]1CCCN(c2ncnc3[nH]ccc23)C1

IC50 ([1]; read-out: IC50): 0.004 µM
Compound: O=C(CNC(=O)Nc1ccc2ccn(-c3ccccc3Cl)c2c1)NCCCCN[C@@H]1CCCN(c2ncnc3[nH]ccc23)C1

TIME [2]: > 5 h
IC50 (MV4-11): 15 nM
Compound: CC(C)N(C[C@H]1O[C@@H](n2cnc3c(N)ncnc32)[C@H](O)[C@@H]1O)[C@H]1C[C@@H](CCc2nc3cc(C(C)(C)C)ccc3[nH]2)C1 [PINOMETOSTAT]

IC50 ([1]; read-out: pIC50 (converted)): 7.94 µM
Compound: NC(=O)CNC(=O)Nc1ccc2ccn(-c3ccccc3Cl)c2c1

IC50 ([1]; read-out: IC50): 0.004 µM
Compound: O=C(CNC(=O)Nc1ccc2ccn(-c3ccccc3Cl)c2c1)NCCCN[C@@H]1CCCN(c2ncnc3[nH]ccc23)C1

IC50 [3]: 17 nM
TIME [2]: > 5 h
IC50 ([1]; read-out: IC50): < 0.0001 µM
IC50 [4]: 3 nM
Ki [5]: 2 pM
IC50 (MV4-11): 5 nM
Compound: Cc1ncccc1-c1c(Cl)sc2ccc(NC(=O)NCC(=O)NCCCN(C)[C@@H]3CCCN(c4ncnc5[nH]ccc45)C3)cc12

IC50 ([1]; read-out: IC50): 0.00015 µM
Compound: CN(CCCNC(=O)CNC(=O)Nc1ccc2ccn(-c3ccccc3Cl)c2c1)[C@@H]1CCCN(c2ncnc3[nH]ccc23)C1

IC50 ([1]; read-out: IC50): 100 µM
Compound: Nc1ncnc2c1ncn2[C@@H]1O[C@H](CO)[C@@H](O)[C@H]1O [ADENOSINE]
